The IC50 is the concentration needed to halve the response being measured. Lower therefore signals greater potency.

This assay is filed under the species Bos taurus. Briefly: Inhibitory effect by measuring the ATP-dependent [Ca2+] uptake in membranes isolated from bovine cerebellum. It is filed as functional.

As for `CC=C(C)C(=O)O[C@H]1C(C)=C2[C@H]([C@@H]1OC(=O)CCCCCCC)[C@@](C)(OC(C)=O)C[C@H](OC(=O)CCC)[C@@]1(O)[C@H]2OC(=O)[C@@]1(C)O` [THAPSIGARGIN], half-maximal inhibition (Bos taurus, Cerebellum) (IC50) required 0.264 nM.

In turn, `C/C=C(/C)C(=O)O[C@H]1C(C)=C2[C@H]([C@@H]1OC(=O)CCCCCCC)[C@@](C)(OC(C)=O)C[C@H](OC(=O)CCC)[C@@]1(O)[C@H]2OC(=O)[C@@]1(C)O` [THAPSIGARGIN] showed an IC50 of 0.17 nM.

In the case of `C/C=C(\C)C(=O)O[C@H]1C(C)=C2[C@H]([C@@H]1OC(=O)CCCCCCC)[C@@](C)(OC(C)=O)C[C@H](OC(=O)CCC)[C@@]1(O)[C@H]2OC[C@@]1(C)O`, the IC50 (Bos taurus, Cerebellum) worked out at 0.18 nM.

Values taken from ChEMBL document CHEMBL1127257, “Ca2+-ATPase inhibitory activity of a locked analogue of thapsigargin” (Bioorg Med Chem Lett, 1994).
